{"source": "patent US20170114346A1", "about": "“GENE EXPRESSION SYSTEM AND […]” (priority 2014, published 2017)", "test_system": "6-OHDA lesioned rats (striatum)", "assay": "Experiment 1 online microdialysis in anesthetized rats (baseline, NSD-1015, NSD+TMP)", "assay_type": "in vivo, rat", "method": "The second microdialysis protocol in Experiment 1 (identical microdialysis methods and protocols were used in the pilot study) was performed in anaesthetized animals was performed in TH+DD-GCH1 treated animals that received oral TMP administration in their drinking water at least 2 weeks prior sampling; either 0.5 mg/ml (n=4) or 2 mg/ml (n=5) (same TMP emulsion that was administered to the animals followed with behavior tests). In addition, this experiment also included animals from the TH+GCH1 (n=3), Les-Sham (n=2) and intact control (n=3) groups. Probe placement was calculated to position the membrane of the probe in the center of the transduction area in striatum, which corresponded to the coordinates: AP: +0.5 mm; ML: −3.7 mm and DV: −5.7 mm with the tooth bar set to −2.4 mm. […] Samples were analyzed readily as described for the first microdialysis experiment. After the last sample was collected the animal was terminated and brain tissue taken for histology."}
{"smiles": "COc1cc(Cc2cnc(N)nc2N)cc(OC)c1OC", "note": "[TMP, trimethoprim]", "values": [{"measurement": "biochemical reconstitution with oral TMP", "setting": "0.5 and 2.0 mg/ml TMP in drinking water, TH+DD-GCH1 treated rats", "result": "both were effective in reaching a similar biochemical reconstitution"}, {"measurement": "DOPA levels after addition of TMP to the ringer solution", "setting": "2E-5 M TMP lactate plus NSD-1015 via probe for 2 h, after 2 weeks oral TMP", "result": "did not further increase the DOPA levels"}]}
